Measured values as given in ChEMBL document CHEMBL3638649, “Dihydroorotate dehydrogenase inhibitors” (2015).

Molecular target: Dihydroorotate dehydrogenase (quinone), mitochondrial (Homo sapiens, UniProt Q02127)
Experiment: Enzyme Assay: The DHODH activity assay is a coupled enzyme assay in which oxidation of DHO and subsequent reduction of ubiquinone are stoichiometrically equivalent to the reduction of DCIP ([…]). The reduction of DCIP is accompanied by a loss of absorbance at 610 nm.Reagents Used:L-Dihydroorotic acid, Sigma, D7128, 2,6-Dichloroindophenol sodium salt hydrate, sigma, D1878 Dimethyl sulfoxide (DMSO), spectroscopic grade purchased from Spectrochem, cat no. 0704209, B. no.--3183650 Decylubiquinone, Sigma, D7911Preparation of Solutions/Reagents:Buffer Preparation: 50 mM tris HCl, 150 mM KCl, and pH 8.0, 0.8% triton.L-Dihydroorotic acid stock solution of 20 mM in buffer2,6-Dichloroindophenol Sodium salt hydrate stock solution of 20 mM in bufferDecylubiquinone stock solution of 20 mM in bufferDMSO used as vehicleProcedure:5 µL of Dimethyl sulfoxide or a compound of formula I in DMSO solution was added to the wells of a 96 well plate. Compounds of formula I were measured at 10 µM.

Dihydroorotate dehydrogenase (quinone), mitochondrial, sequence (Q02127 whole entry): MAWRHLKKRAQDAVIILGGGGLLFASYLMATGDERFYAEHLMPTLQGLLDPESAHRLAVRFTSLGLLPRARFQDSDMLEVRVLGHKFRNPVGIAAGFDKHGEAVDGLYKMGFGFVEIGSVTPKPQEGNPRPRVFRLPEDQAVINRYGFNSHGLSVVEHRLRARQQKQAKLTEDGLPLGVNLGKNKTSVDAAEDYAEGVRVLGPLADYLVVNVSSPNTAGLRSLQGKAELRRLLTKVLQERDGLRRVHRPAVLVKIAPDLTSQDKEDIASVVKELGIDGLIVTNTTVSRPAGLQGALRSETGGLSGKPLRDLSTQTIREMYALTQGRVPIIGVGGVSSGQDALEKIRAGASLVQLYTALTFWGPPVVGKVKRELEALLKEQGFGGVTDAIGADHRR

IC50: 11.4 µM
SMILES: Cc1cc(C(=O)O)c2nc(C#Cc3ccccc3)[nH]c2c1
